The assay deals with T1, NPFF1 receptor (Homo sapiens, UniProt Q9GZQ6).
T1 construct: expressed in transfected cells; host or cells: Chinese Hamster Ovary cells, CHOSP10 (membranes)
As to the kind of experiment: NPFF receptor binding test (displacement of 125I-Tyr1-NPFF from CHOSP10 cell membranes). The settings on record: membranes of CHOSP10 cells producing NPFF1 receptor; 0.2 nM 125I-Tyr1-NPFF; 90 minutes at room temperature. Here is the method:
Compounds of Formula I were examined in the following test for their affinity to the NPFF receptors: Hamster cells suitable for neuropeptide FF receptor-binding studies (Chinese Hamster Ovary cells, CHOSP10) which in each case produce the NPFF1 or NPFF2 receptor, were multiplied in standard cell-culture conditions. The cell-culture medium was sucked out and 5 ml of buffer A (5 mM Tris pH=7.4, 1 mM MgCl2) added per 17 cm Petri dish. The cells were scraped off the cell-culture plate and transferred into a 50 ml Falcon vessel. The cells were then centrifuged for 5 minutes at 450 g, resuspended in buffer A once again and mixed for 30 seconds on a Polytron Vortexer. After centrifugation at 30,000 g for 20 minutes the supernatant was discarded and the membrane pellet taken up in 500 μl buffer C (75 mM Tris pH=7.4, 25 mM MgCl2, 250 mM sucrose, 0.1 mM PMSF, 0.1 mM phenanthroline). The membrane-buffer mixture was then divided into aliquots and deep-frozen. The protein content of an aliquot was determined by the Lowry method. The binding test was carried out in a final volume of 250 μl. 100 μl membrane-buffer mixture corresponding to 35 μg protein content was mixed with 95 μl binding buffer (50 mM Tris pH 7.4, 60 mM NaCl, 0.1% protease-free BSA, 0.01% NaN3). After addition of 5 μl of a concentration of test substance per measurement point in each case, 0.2 nM ^125I-Tyr1-NPFF (NEN, NEX381) per measurement point was added in 50 μl. After 90 minutes' incubation at room temperature the samples were sucked out through a GF/C filter (Millipore ([…]60)) and the filter was washed with ice cold binding buffer with 3 times 300 μl (Packard Filtermate). After addition of 55 μl Microscint 40 (Packard 6013641) scintillation fluid the measurement points were quantified in the gamma counter (Packard, Top Count NXT). Non-specific binding was ascertained in the presence of 1 μM unmarked neuropeptide FF. Specific binding is defined as the difference between total and non-specific binding. IC50 values are defined as that concentration of the antagonist which displaces 50% of the ^125I-marked neuropeptide FF. This concentration is ascertained by linear regression analysis after logit/log-transformation of the binding values.
A general note: Loss of bound radioactivity is the signal in a displacement assay; it reports binding, not function.

The term IC50 denotes the concentration that inhibits the measured activity by half. Higher therefore signals a need for much substance.

Each structure is given as a SMILES string.

T1 sequence (Q9GZQ6 whole entry): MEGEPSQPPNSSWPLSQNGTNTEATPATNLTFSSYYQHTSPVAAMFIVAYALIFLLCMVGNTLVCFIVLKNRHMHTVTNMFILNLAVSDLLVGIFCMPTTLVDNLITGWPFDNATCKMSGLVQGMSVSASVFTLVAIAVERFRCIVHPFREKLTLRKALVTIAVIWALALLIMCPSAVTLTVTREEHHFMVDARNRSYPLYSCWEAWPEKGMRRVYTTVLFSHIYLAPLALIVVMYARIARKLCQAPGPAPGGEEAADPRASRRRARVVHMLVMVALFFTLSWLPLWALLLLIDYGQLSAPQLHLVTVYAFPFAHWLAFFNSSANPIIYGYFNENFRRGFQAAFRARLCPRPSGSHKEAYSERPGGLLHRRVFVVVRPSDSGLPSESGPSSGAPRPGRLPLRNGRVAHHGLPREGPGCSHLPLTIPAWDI

Turning to `Cc1nc(NC(=N)N)nc2c1C(C)CCC2` (racemic) [N-(4,5-dimethyl-5,6,7,8-tetrahydro-quinazolin-2-yl)-guanidine], the IC50 worked out at 7 nM.
To `Cc1nc(NC(=N)N)nc2c1CC(C)CC2` (racemic) [N-(4,6-dimethyl-5,6,7,8-tetrahydro-quinazolin-2-yl)-guanidine] belongs 48 nM; to `Cc1nc(NC(=N)N)nc2c1CCCCCC2` (racemic) [N-(4-methyl-5,6,7,8,9,10-hexahydro-cyclooctapyrimidin-2-yl)-guanidine], 60 nM.
For `Cc1nc(NC(=N)N)nc2c1CCCC2` (racemic) [N-(4-methyl-5,6,7,8-tetrahydro-quinazolin-2-yl)-guanidine], the IC50 is 4 nM.
The same measure for `Cc1nc(NC(=N)N)nc2c1CCCCC2` (racemic) [N-(4-methyl-6,7,8,9-tetrahydro-5H-cycloheptapyrimidin-2-yl)-guanidine]: 54 nM; for `Cc1nc(NC(=N)N)nc2c1CC(c1ccccc1)CC2` (racemic) [N-(4-methyl-6-phenyl-5,6,7,8-tetrahydro-quinazolin-2-yl)-guanidine]: 16 nM; for `CCCC1CCc2nc(NC(=N)N)nc(C)c2C1` (racemic) [N-(4-methyl-6-propyl-5,6,7,8-tetrahydro-quinazolin-2-yl)-guanidine]: 1 nM.
To `Cc1nc(NC(=N)N)nc2c1CCCC2c1ccccc1` (racemic) [N-(4-methyl-8-phenyl-5,6,7,8-tetrahydro-quinazolin-2-yl)-guanidine] belongs 16 nM; to `Cc1nc(NC(=N)N)nc2c1CC(C(C)C)CC2` (racemic) [N-(6-isopropyl-4-methyl-5,6,7,8-tetrahydro-quinazolin-2-yl)-guanidine], 2 nM.
To `Cc1nc(NC(=N)N)nc2c1CC(C(C)(C)C)CC2` (racemic) [N-(6-tert-butyl-4-methyl-5,6,7,8-tetrahydro-quinazolin-2-yl)-guanidine] belongs 8 nM.
`CCC(C)C1CCCc2c(C)nc(NC(=N)N)nc21` (racemic) [N-(8-sec-butyl-4-methyl-5,6,7,8-tetrahydro-quinazolin-2-yl)-guanidine] registered an IC50 of 73 nM.
The same measure for `Cc1nc(NC(=N)N)nc2c1CCCC2C(C)(C)C` (racemic) [N-(8-tert-butyl-4-methyl-5,6,7,8-tetrahydro-quinazolin-2-yl)-guanidine]: 39 nM; for `CCC(C)(C)C1CCc2nc(NC(=N)N)nc(C)c2C1` (racemic) [N-[6-(1,1-dimethyl-propyl)-4-methyl-5,6,7,8-tetrahydro-quinazolin-2-yl]-guanidine]: 19 nM.

The values above are taken from US7544691B2, “Guanidine derivatives” (Actelion Pharmaceuticals, Ltd., priority 2004, dated 2009).
